Laboratory results as given in patent publication US20160304970A1, “GENE BIOMARKER TO DIAGNOSE METASTIC LIVER CANCER AND METHODS FOR TARGETING THE SAME” (University of Southern California, priority 2015, published 2016).

Assays:
CD133 (+) Huh7 cells [1] = assay: In vivo tumorigenicity, CD133 (+) Huh7 cells in NOG mice; design: species or system mouse
Protocol: The TUNEL staining was performed according to the manufacturer's instructions (4810-30-K, TREVIGEN). In brief, paraffin-embedded tumor sections from each group were de-paraffinized, re-hydrated, and washed twice in PBS. Samples were covered with Proteinase K solution for 30 minutes at room temperature and then washed two times in deionized water. Slides were immersed in quenching solution for 5 minutes at room temperature and then washed in PBS. Slides were incubated in TdT labeling buffer for 5 minutes, immersed with labeling reaction mix, and incubated at 37° C. for 1 hour in a humidity chamber. Samples were immersed in TdT stop buffer for 5 minutes and then washed twice in deionized water for 5 minutes each at room temperature. Samples were covered with Strep-HRP solution and incubated for 10 minutes at 37° C. and washed twice in PBS. Samples were incubated in DAB solution for 5 minutes and then washed in deionized water several times. The samples were counterstained with Methyl Green and mounted on slides for observation.
CD133 was conjugated to the terminal amine functionality on a polyethylene glycol block of polylactide-polyethylene glycol (PLA-PEG) as previously described (Swaminathan et al., 2013). PLGA (30 mg) was dissolved in 1 ml chloroform containing ATRA (6 mg). An oil-in-water emulsion was formed by emulsifying the polymer drug solution in 6 ml of 2.5% w/v aqueous PVA solution by sonication (Sonicator®XL, Misonix, N.Y.) for 5 minutes in an ice bath. The PLA-PEG-CD133 conjugate was dissolved in chloroform (8 mg/100 μl) and added to the oil-in-water emulsion with stirring. The emulsion was stirred for 18 hours at ambient conditions followed by 2 hours under vacuum to remove residual chloroform. Nanoparticles were recovered by ultracentrifugation (35,000 rpm for 35 minutes at 4° C.; OptimaTMLE-80K, Beckman, Palo Alta, Calif.) and washed three times with deionized water to remove excess PVA and unencapsulated drugs. The nanoparticle suspension was then lyophilized (Labconco, FreeZone 4.5, Kansas City, Mo.). Before injection, the lyophilized nanoparticles were re-dissolved in PBS and filtered with a 0.22 micron filter.
A half million freshly sorted CD133 (+) TICs were suspended in 100 μl of Matrigel™ (BD) and injected subcutaneously into NOD/Shi-scid/IL-2Rγ^null(NOG) mice, six mice per group. After the tumor volume reached 100 mm^3, animals received one intravenous dose of CD133-conjugated RA nanoparticle (5 μg/ml) and SAHA (0.5 μg/ml) daily. The animals were monitored regularly for tumor growth and survival every day. All animals work was performed according to national and international guidelines. Animal studies were based on a protocol approved by the Institutional Animal Care and Use Committee at University of Southern California.

PTEN = PTEN 3′-UTR luciferase reporter and western blot of PTEN-FOXO pathway; format: cell-based; conditions: FIG. 47D
CD133 (+) Huh7 cells [2] = assay: Anchorage-independent growth assay in soft agar; format: cell-based, human; conditions: retinoic acid 5 μg/ml, SAHA 0.5 μg/ml; 2 weeks
Protocol: Freshly sorted CD133 (+)/(−) Huh7 cells were mixed with 0.35% agarose containing 1000 cells per well in culture medium with retinoic acid (5 μg/ml), SAHA (0.5 μg/ml), or a combination of both. After 2 weeks, the colony numbers were counted.

patient-derived TICs = assay: Subcutaneous xenograft of patient-derived TICs in NSG mice; format: in vivo, mouse; conditions: no ATRA, i.p.
Protocol: To establish prognostic biomarkers for the best combination chemotherapy, five different patient-derived TICs were tested for responses as xenografts in NSG mice for the best combination chemotherapy based on mutation/transcriptome subtypes. Anti-tumorigenic ability by ATRA+SAHA targeting TICs encapsulated with SAHA was validated (Table 3). […] As placebo treatment, solvent (DMSO) in an equal total volume (0.2 ml/mouse) was injected. Tumor growth kinetics was studied. Combination of ATRA with SAHA further inhibited the self-renewal abilities of TICs in vivo (FIG. 17E).

[3] = system: Huh7, Hep3B, HepG2, human CSCs and mouse CSCs; assay: Combination dose determination, cell viability of HCC cells; format: cell-based
Protocol: Freshly sorted CD133 (+) Huh7 or mouse TICs were plated in 100 μl of medium containing 5000 cells per well in a 96-well plate. After 16 hours, 0.5 μl of a 2 μg/ml, 1 μg/ml, 0.2 μg/ml, 0.1 μg/ml, 0.02 μg/ml, or 0.01 μg/ml compound was added to each well in triplicate, resulting in a 10 μg/ml, 5 μg/ml, 1 μg/ml, 0.5 μg/ml, 0.1 μg/ml, and 0.05 μg/ml final concentration for most compounds, respectively. After 48 hours, the cells were either measured for cell viability by Cell-Glo® Reagent (Promega), or fixed with 1% PFA (paraformaldehyde) and stained with DAPI for high-throughput screening.

CD133 (+) Huh7 cells [4] = assay: Tumor spheroid formation assay; format: cell-based, human; conditions: CD133 (+) group; ATRA 5 μg/ml, SAHA 0.5 μg/ml; 2 weeks
Protocol: Freshly sorted CD133(+)/(−) Huh7 cells were plated in a low binding culture plate (NUNC 145397) containing 100 cells per well in 100 μl of culture medium with ATRA (5 μg/ml), SAHA (0.5 μg/ml), or a combination of both. After 2 weeks, colony numbers were counted.

Nanog = assay: Nanog-GFP reporter cell screening; format: cell-based, mouse; conditions: TICs with lentivirus Nanog-GFP reporter
Protocol: The Nanog-GFP liver cancer stem cell line was transduced with pGreenZeo-Nanog transcriptional reporter lentivirus vector (System Biosciences SR10031VA-1). The transduced cells were positively selected with zeomycin (10 μg/ml) and further sorted for the GFP-high population (˜20% of total population) for drug screening. Nanog-GFP liver cancer stem cells were then seeded in 100 μl medium containing 5000 cells per well in a 96-well plate. After 16 hours, 0.5 μl of a […] compound was added to each well, resulting in a 10 μg/ml final concentration for most compounds. After 12 hours, the cells were fixed with 1% Paraformadehyde and stained with DAPI; compounds were screened in duplicate. The GFP and DAPI images were acquired using a BD Pathway Bioimaging Systems instrument. Z-score was calculated from the data using the formula z=(X−u)/s.d., where u is the mean, s.d. is the standard deviation of the whole population and X is the sample value calculated based on the ratio of GFP intensity to DAPI intensity. The z-score of selected hits must be less than −1.0. The average of z-score of vehicle control is 2.0±1.04.

O=C(CCCCCCC(=O)Nc1ccccc1)NO [SAHA, suberoylanilide hydroxamic acid]
tumor growth (CD133 (+) Huh7 cells [1]; ATRA 5 μg/ml in CD133 antibody-conjugated nanoparticles, SAHA 0.5 μg/ml, after 4 days of treatment): did not reduce or even promote tumor growth | tumor morphology, hematoxylin and eosin stained sections (CD133 (+) Huh7 cells [1]; NOG mice, CD133 (+) Huh7 tumors): did not induce cell death of tumor cells | luciferase-PTEN 3′-UTR reporter activity (PTEN): increased | reduction of colony numbers, anchorage independent growth in soft agar (CD133 (+) Huh7 cells [2]): 50% | anti-tumorigenic ability, % (animals/total) (patient-derived TICs; SAHA 8 mg/kg (human: 300 mg)): 10% (2/20) | anti-tumorigenic ability, % (animals/total) (patient-derived TICs; SAHA 10 mg/kg (human: 400 mg)): 5% (1/20) | anti-tumorigenic ability, % (animals/total) (patient-derived TICs; SAHA 12 mg/kg (human: 500 mg)): 10% (2/20) | cell growth / viability in vitro [3]: failed to reduce cell growth in vitro | reduction of colony numbers, tumor spheroid formation (CD133 (+) Huh7 cells [4]): 66% | Nanog expression (Nanog): suppressed Nanog expression
